Results reported in ChEMBL document CHEMBL6071165, “Design, synthesis and biological evaluation of plant-derived miliusol derivatives achieve TNBC profound regression in vivo” (Eur J Med Chem, 2024).
Activity calls are given as the source filed them. No cut-off for these calls is given here.

Key:
[1] = Toxicity in female BALB/c mouse xenografted with human MDA-MB-231 cells assessed as effect on pathological changes in heart at 5 to 20 mg/kg, sc by H and E staining based analysis; type: organism-based; settings: in vivo, dose 5-20 mg/kg
BT-549 [2] = test: Antitumor activity against human BT-549 cells xenografted in female BALB/c mouse model assessed as reduction in tumor volume administered subcutaneously and measured every day; type: functional, cell-based; settings: dose 5-20 mg/kg, route sc
MDA-MB-231 [3] = test: Induction of apoptosis in human MDA-MB-231 cells assessed as upregulation of cleavage of caspase-8 expression at 0.5 to 2 uM incubated for 24 hrs by Western blot analysis; type: functional, cell-based; settings: dose 0.5-2 µM
BT-549 [4] = test: Induction of apoptosis in human BT-549 cells incubated for 24 hrs by Annexin V-PI staining based flow cytometric analysis; type: functional, cell-based; settings: dose 0.5-2 µM
MDA-MB-231 [5] = test: Antiproliferative activity against human MDA-MB-231 cells xenografted in female BALB/c mouse model assessed as fold change in inhibition of PKM2 expression at 20 mg/kg administered subcutaneously incubated for 24 hrs by Western blot analysis (reference value: 1.00%); type: functional; settings: route sc
MDA-MB-231 [6] = test: Induction of apoptosis in human MDA-MB-231 cells assessed as viable cells at 2 uM incubated for 24 hrs by Annexin V-PI staining based flow cytometric analysis (reference value: 96.5%); type: functional; settings: read-out: Activity
[7] = Toxicity in female BALB/c mouse assessed as change in spleen administered subcutaneously measured upto 16 days; type: tissue-based; settings: in vivo, sc, 384 h, time < 16 day
[8] = Selectivity ratio of IC50 for antiproliferative activity against human MCF-10A cells assessed as inhibition of cell proliferation incubated for 48 hrs by MTT assay to IC50 for antiproliferative activity against human BT-549 cells assessed as inhibition of cell proliferation incubated for 48 hrs by MTT assay; type: toxicity, cell-based; settings: MCF-10A cells versus BT-549 cells, read-out: Ratio IC50
MDA-MB-231 [9] = test: Inhibition of DNA replication in human MDA-MB-231 cells assessed as reduction in EDU fluorescence intensity by EDU staining based fluorescence microscopic analysis; type: functional, cell-based; settings: dose 0.5-2 µM
MDA-MB-231 [10] = test: Induction of apoptosis in human MDA-MB-231 cells assessed as early apoptotic cells at 0.5 uM incubated for 24 hrs by Annexin V-PI staining based flow cytometric analysis (reference value: 0.42%); type: functional
MDA-MB-231 [11] = test: Antiproliferative activity against human MDA-MB-231 cells xenografted in female BALB/c mouse model assessed as fold change in cleavage of caspase-3 level at 20 mg/kg administered subcutaneously incubated for 24 hrs by Western blot analysis (reference value: 1.00%); type: functional; settings: route sc
BT-549 [12] = test: Antitumor activity against human BT-549 cells xenografted in female BALB/c mouse model assessed as reduction in tumor weight administered subcutaneously and measured every day; type: functional, cell-based; settings: dose 5-20 mg/kg, route sc
BT-549 [13] = test: Antiproliferative activity against human BT-549 cells xenografted in female BALB/c mouse model assessed as increase in E-cadherin level at 5 to 20 mg/kg administered subcutaneously by immunohistochemical staining based microscopic analysis; type: functional, organism-based; settings: dose 5-20 mg/kg, route sc
BT-549 [14] = test: Antiproliferative activity against human BT-549 cells xenografted in female BALB/c mouse model assessed as fold change in downregulation of MMP-2 protein level at 10 mg/kg administered subcutaneously incubated for 24 hrs by Western blot analysis (reference value: 1.00%); type: functional; settings: route sc
MDA-MB-231 [15] = test: Induction of apoptosis in human MDA-MB-231 cells assessed as upregulation of cleavage of PARP level at 0.5 to 2 uM incubated for 24 hrs by Western blot analysis; type: functional, cell-based; settings: dose 0.5-2 µM
BT-549 [16] = test: Inhibition of DNA replication in human BT-549 cells assessed as reduction in EDU fluorescence intensity by EDU staining based fluorescence microscopic analysis; type: functional, cell-based; settings: dose 0.5-2 µM
BT-549 [17] = test: Antiproliferative activity against human BT-549 cells xenografted in female BALB/c mouse model assessed as inhibition of Ki-67 expression at 5 to 20 mg/kg administered subcutaneously by immunohistochemical staining based microscopic analysis; type: functional, organism-based; settings: dose 5-20 mg/kg, route sc
BT-549 [18] = test: Induction of ER stress in human BT-549 cells assessed as activation of BIP protein level incubated for 24 hrs by Western blot analysis; type: functional, cell-based; settings: dose 0.5-2 µM
MDA-MB-231 [19] = test: Antitumor activity against human MDA-MB-231 cells xenografted in female BALB/c mouse model assessed as reduction of proliferation rate of tumor at 5 to 20 mg/kg administered subcutaneously and measured every day; type: functional, organism-based; settings: dose 5-20 mg/kg, route sc
MDA-MB-231 [20] = test: Inhibition of cell migration in human MDA-MB-231 cells assessed as reduction in MMP-2 protein level at 1 uM incubated for 24 hrs by DAPI staining based immunofluorescence analysis; type: functional
MDA-MB-231 [21] = test: Inhibition of glycolysis in human MDA-MB-231 cells assessed as decrease in LDHA protein level at 0.5 to 2 uM incubated for 24 hrs by Western blot analysis; type: functional, cell-based; settings: dose 0.5-2 µM
[22] = Toxicity in female BALB/c mouse xenografted with human MDA-MB-231 cells assessed as effect on pathological changes in spleen at 5 to 20 mg/kg, sc by H and E staining based analysis; type: organism-based; settings: in vivo, dose 5-20 mg/kg
BT-549 [23] = test: Antiproliferative activity against human BT-549 cells xenografted in female BALB/c mouse model assessed as fold change in upregulation of BAX protein level at 20 mg/kg administered subcutaneously incubated for 24 hrs by Western blot analysis (reference value: 1.00%); type: functional; settings: route sc
BT-549 [24] = test: Induction of apoptosis in human BT-549 cells assessed as necrotic cells at 1 uM incubated for 24 hrs by Annexin V-PI staining based flow cytometric analysis (reference value: 3.32%); type: functional
BT-549 [25] = test: Inhibition of cell migration in human BT-549 cells assessed as increase in E-cadherin level by incubated for 24 hrs by Western blot analysis; type: functional, cell-based; settings: dose 0.5-2 µM
BT-549 [26] = test: Inhibition of cell proliferation in human BT-549 cells assessed as reduction in Ki-67 expression at 0.5 to 2 uM incubated for 24 hrs by DAPI staining based immunofluorescence analysis; type: functional; settings: dose 0.5-2 µM
BT-549 [27] = test: Antiproliferative activity against human BT-549 cells xenografted in female BALB/c mouse model assessed as fold change in upregulation of BIP protein level at 5 mg/kg administered subcutaneously incubated for 24 hrs by Western blot analysis (reference value: 1.00%); type: functional; settings: route sc
MDA-MB-231 [28] = test: Antimetastatic activity against human MDA-MB-231-Luc cells xenografted in female BALB/C mouse assessed as reduction in metastasis speed at 20 mg/kg administered subcutaneously and measured for 16 days; type: functional, organism-based; settings: route sc, time 16.0 day
BT-549 [29] = test: Inhibition of glycolysis in human BT-549 cells assessed as decrease in GLUT4 protein level at 0.5 to 2 uM incubated for 24 hrs by Western blot analysis; type: functional, cell-based; settings: dose 0.5-2 µM
[30] = Toxicity in female BALB/c mouse assessed as change in brain administered subcutaneously measured upto 16 days; type: tissue-based; settings: in vivo, sc, 384 h, time < 16 day
MDA-MB-231 [31] = test: Antiproliferative activity against human MDA-MB-231 cells xenografted in female BALB/c mouse model assessed as fold change in inhibition of PKM2 expression at 10 mg/kg administered subcutaneously incubated for 24 hrs by Western blot analysis (reference value: 1.00%); type: functional; settings: route sc
BT-549 [32] = test: Induction of apoptosis in human BT-549 cells assessed as upregulation of cleavage of caspase-9 expression at 0.5 to 2 uM incubated for 24 hrs by Western blot analysis; type: functional, cell-based; settings: dose 0.5-2 µM
MDA-MB-231 [33] = test: Induction of apoptosis in human MDA-MB-231 cells assessed as late apoptotic cells at 2 uM incubated for 24 hrs by Annexin V-PI staining based flow cytometric analysis (reference value: 1.83%); type: functional

With CC(C)=CCC/C(C)=C/[C@H]1OC(=O)CC12C[C@H](OC(=O)Cc1ccc(NC(=O)/C=C/c3ccccc3)cc1)C=CC2=O (stereo partly drawn) the Activity [1] was “Non-Toxic”, the Activity (BT-549 [2]) was “Dose-Dependent Effect” and the Activity (MDA-MB-231 [3]) was “Active”. The Activity (BT-549 [4]) was “Dose-Dependent Effect”, the “fold change (FC)” value (MDA-MB-231 [5]) was 0.31 and the viability at 2 µM (MDA-MB-231 [6]) was 48.8%. The Activity [7] was “Non-Toxic”, the selectivity ratio at 48 h [8] was 72.7 and the inhibition (MDA-MB-231 [9]) was “Dose-Dependent Effect”. The Activity (MDA-MB-231 [10]) was 0.83%, the “fold change (FC)” value (MDA-MB-231 [11]) was 2.09 and the Activity (BT-549 [12]) was “Dose-Dependent Effect”. The Activity (BT-549 [13]) was “Active”, the “fold change (FC)” value (BT-549 [14]) was 0.75 and the Activity (MDA-MB-231 [15]) was “Active”. For the same compound, the inhibition (BT-549 [16]) was “Dose-Dependent Effect”, the Activity (BT-549 [17]) was “Active” and the Activity (BT-549 [18]) was “Dose-Dependent Effect”. The Activity (MDA-MB-231 [19]) was “Active”, the inhibition (MDA-MB-231 [20]) was “Active” and the inhibition (MDA-MB-231 [21]) was “Active”. For the same compound, the Activity [22] was “Non-Toxic”, the “fold change (FC)” value (BT-549 [23]) was 2.21 and the Activity (BT-549 [24]) was 5.44%. For the same compound, the inhibition (BT-549 [25]) was “Dose-Dependent Effect”, the inhibition (BT-549 [26]) was “Active” and the “fold change (FC)” value (BT-549 [27]) was 1.4. For the same compound, the Activity (MDA-MB-231 [28]) was “Active”, the inhibition (BT-549 [29]) was “Active” and the Activity [30] was “Non-Toxic”. For the same compound, the “fold change (FC)” value (MDA-MB-231 [31]) was 0.62, the Activity (BT-549 [32]) was “Active” and the Activity (MDA-MB-231 [33]) was 42.4%.
